Reference: ChEMBL document CHEMBL5380844, “Discovery of a Novel, Potent, Orally Active, and Safe Inhibitor Targeting Human Mitochondrial RNA Polymerase” (J Med Chem, 2023)
Activity calls are given as the source filed them. The calls are words filed in the database; no cut-off is given here.

How the values were obtained:
[1] = AUC (0 to t) in ICR mouse at 1 mg/kg, iv measured upto 24 hrs by LC-MS/MS analysis; format: ADME, organism-based; set-up: time < 24 hrs, dose 1 mg/kg, route iv; settings: in vivo
[2] = system: A2780; test: Induction of apoptosis in human A2780 cells assessed as necrotic cells at 50 nM incubated for 96 hrs by Annexin-V/FITC and PI staining based flow cytometry analysis (reference value: 2.07%); format: functional
[3] = system: DLD-1; test: Antiproliferative activity against human DLD-1 cells incubated for 168 hrs by SRB method; format: functional, cell-based; settings: DLD-1, 168 h
[4] = system: A2780; test: Antitumor activity against human A2780 cells xenografted in BALB/c nude mouse model assessed as induction of tumor shrinkage 100 mg/kg by H and E staining based immunohistochemical analysis; format: functional, organism-based
[5] = Volume of distribution at steady state in ICR mouse at 1 mg/kg, iv measured upto 24 hrs by LC-MS/MS analysis; format: ADME, organism-based; settings: in vivo, read-out: Vdss
[6] = system: A2780; test: Antitumor activity against human A2780 cells xenografted in BALB/c nude mouse model assessed as reduction in […] level at 100 mg/kg, po by immunoblotting analysis; format: functional, organism-based
[7] = molecular target: Cytochrome P450 2C19 (Homo sapiens, UniProt P33261); test: Inhibition of CYP2C19 (unknown origin) using S-mephenytoin as substrate in presence of NADPH by LC/MS/MS analysis; format: ADME
Cytochrome P450 2C19, sequence (P33261 whole entry): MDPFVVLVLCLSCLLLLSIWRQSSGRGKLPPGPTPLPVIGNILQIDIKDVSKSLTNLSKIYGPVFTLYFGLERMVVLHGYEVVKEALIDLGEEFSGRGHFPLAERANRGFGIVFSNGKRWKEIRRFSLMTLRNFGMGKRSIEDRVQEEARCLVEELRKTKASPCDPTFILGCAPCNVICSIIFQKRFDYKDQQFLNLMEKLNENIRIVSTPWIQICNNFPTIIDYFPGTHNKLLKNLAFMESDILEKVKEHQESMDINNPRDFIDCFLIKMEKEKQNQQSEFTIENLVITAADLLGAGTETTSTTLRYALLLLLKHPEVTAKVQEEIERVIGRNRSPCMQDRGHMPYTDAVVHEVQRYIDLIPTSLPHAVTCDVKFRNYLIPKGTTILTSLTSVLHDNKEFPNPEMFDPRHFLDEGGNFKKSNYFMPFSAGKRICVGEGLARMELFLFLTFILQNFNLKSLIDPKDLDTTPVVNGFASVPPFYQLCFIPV

[8] = Oral bioavailability in ICR mouse at 10 mg/kg measured upto 24 hrs by LC-MS/MS analysis; format: ADME, organism-based; settings: in vivo
[9] = system: A2780; test: Inhibition of colony formation in human A2780 cells at 500 nM incubated for 14 days by crystal violet staining based analysis; format: functional, cell-based; settings: time 14.0 day
[10] = Toxicity in Balb/c mouse assessed as effect on kidney at 100 mg/kg by H and E staining based analysis; format: organism-based; settings: in vivo
[11] = system: A2780; test: Antiproliferative activity against human A2780 cells incubated for 168 hrs by SRB method; format: functional, cell-based; settings: A2780, 168 h
[12] = AUC (0 to infinity) in ICR mouse at 10 mg/kg, po measured upto 24 hrs by LC-MS/MS analysis; format: ADME, organism-based; set-up: time < 24 hrs, dose 10 mg/kg, route po; settings: in vivo
[13] = system: A2780; test: Antitumor activity against human A2780 cells xenografted in BALB/c nude mouse model assessed as reduction in UQCRC2 level at 100 mg/kg, po by immunoblotting analysis; format: functional, organism-based
[14] = Apparent permeability across apical to basolateral side in human Caco-2 cells at 3 uM incubated for 2 hrs by LC-MS/MS analysis; format: ADME, cell-based
[15] = molecular target: T1, Cytochrome P450 1A2 (Homo sapiens, UniProt P05177); test: Inhibition of CYP1A2 (unknown origin) using phenacetin as substrate in presence of NADPH by LC/MS/MS analysis; format: ADME
T1 sequence (P05177 whole entry): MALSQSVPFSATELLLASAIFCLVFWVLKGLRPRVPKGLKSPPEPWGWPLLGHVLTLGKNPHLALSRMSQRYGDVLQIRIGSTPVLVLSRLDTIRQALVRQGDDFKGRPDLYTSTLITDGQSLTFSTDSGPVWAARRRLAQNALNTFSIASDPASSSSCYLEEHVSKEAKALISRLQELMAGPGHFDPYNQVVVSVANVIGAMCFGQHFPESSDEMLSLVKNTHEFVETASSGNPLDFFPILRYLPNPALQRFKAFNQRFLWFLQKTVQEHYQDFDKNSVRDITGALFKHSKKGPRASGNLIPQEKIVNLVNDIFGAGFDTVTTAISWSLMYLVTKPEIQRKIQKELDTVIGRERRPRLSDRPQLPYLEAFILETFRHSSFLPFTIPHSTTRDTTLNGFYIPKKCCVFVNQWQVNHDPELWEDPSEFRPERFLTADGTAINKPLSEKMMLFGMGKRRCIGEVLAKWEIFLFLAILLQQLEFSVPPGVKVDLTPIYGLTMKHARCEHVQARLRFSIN

[16] = system: A2780; test: Inhibition of colony formation in human A2780 cells at upto 500 nM incubated for 14 days by crystal violet staining based analysis; format: functional, cell-based; settings: time 14.0 day
[17] = system: A2780; test: Induction of mitochondrial morphological changes in human A2780 cells assessed as change in shape of mitochondria measured after 24 hrs by TEM analysis; format: functional, cell-based
[18] = system: A2780; test: Inhibition of mitochondrial transcript in human A2780 cells incubated for 12 hrs followed by compound removal and measured after 36 hrs by RT-qPCR analysis; format: functional, cell-based
[19] = Efflux ratio of apparent permeability across basolateral to apical side over apical to basolateral side in human Caco2 cells at 3 uM incubated for 2 hrs by LC-MS/MS analysis; format: ADME, cell-based; settings: Caco-2
[20] = system: A2780; test: Induction of apoptosis in human A2780 cells assessed as viable cells at 50 nM incubated for 96 hrs by Annexin-V/FITC and PI staining based flow cytometry analysis (reference value: 89.2%); format: functional; settings: read-out: Activity
[21] = system: A2780; test: Induction of cell cycle arrest in human A2780 cells assessed as accumulation of cells at G1 phase at 100 nM measured after 96 hrs by PI staining based flow cytometry analysis (reference value: 80.81%); format: functional
[22] = system: A2780; test: Effect on 5S mRNA level in human A2780 cells by RT-qPCR analysis; format: functional, cell-based
[23] = system: A2780; test: Induction of cell cycle arrest in human A2780 cells assessed as accumulation of cells at G1 phase at 50 nM measured after 96 hrs by PI staining based flow cytometry analysis (reference value: 80.81%); format: functional
[24] = system: A2780; test: Inhibition of mitochondrial transcript in human A2780 cells incubated for 12 hrs followed by compound removal and measured after 24 hrs by RT-qPCR analysis; format: functional, cell-based
[25] = Half life in ICR mouse at 1 mg/kg, iv measured upto 24 hrs by LC-MS/MS analysis; format: ADME, organism-based; settings: in vivo
[26] = system: A2780; test: Inhibition of colony formation in human A2780 cells assessed as decrease in size of colonies at 10 nM incubated for 14 days by crystal violet staining based analysis; format: functional, cell-based; settings: time 14.0 day
[27] = system: MDA-MB-231; test: Antiproliferative activity against human MDA-MB-231 cells incubated for 168 hrs by SRB method; format: functional, cell-based; settings: MDA-MB-231, 168 h
[28] = system: A2780; test: Antitumor activity against human A2780 cells xenografted in BALB/c nude mouse model assessed as reduction in ATP5A level at 100 mg/kg, po by immunoblotting analysis; format: functional, organism-based
[29] = system: A2780; test: Effect on 28S mRNA level in human A2780 cells by RT-qPCR analysis; format: functional, cell-based
[30] = system: A2780; test: Effect on cellular senescence in human A2780 cells at 0.05 to 1 uM measured after 96 hrs by beta-galactosidase staining based analysis; format: functional, cell-based; settings: dose 0.05-1 µM
[31] = system: HeLa; test: Antiproliferative activity against human HeLa cells incubated for 168 hrs by SRB method; format: functional, cell-based
[32] = system: A2780; test: Induction of apoptosis in human A2780 cells assessed as viable cells at 100 nM incubated for 96 hrs by Annexin-V/FITC and PI staining based flow cytometry analysis (reference value: 89.2%); format: functional; settings: read-out: Activity
[33] = system: A2780; test: Induction of apoptosis in human A2780 cells assessed as viable cells at 200 nM incubated for 96 hrs by Annexin-V/FITC and PI staining based flow cytometry analysis (reference value: 89.2%); format: functional; settings: read-out: Activity
[34] = system: A2780; test: Inhibition of MT-ND1 expression in human A2780 cells at 100 nM incubated for 12 hrs by RNA sequencing analysis; format: functional, cell-based

## Cc1ccc(-c2cc(=O)oc3cc(O[C@H](C)C(=O)N4CC5CCC(C4)N5C)ccc23)c(C)c1
[1]
  AUC(0-t) at 24 h: 424 ng·h/mL
[2]
  Activity: 2.29%
[3]
  IC50: 69 nM
[4]
  Activity: Active
[5]
  Vd: 6.4 L/kg
[6]
  Activity: Active
[7]
  IC50: 31500 nM
[8]
  bioavailability: 43.2%
[9]
  inhibition: inactive
[10]
  Activity: Non-Toxic
[11]
  IC50: 68 nM
[12]
  AUC(0-inf): 1900 ng·h/mL
[13]
  Activity: Active
[14]
  Papp A→B at 2 h, 3 µM: 6.93 ×10⁻⁶ cm/s
[15]
  IC50: > 40000 nM
[16]
  inhibition: Active
[17]
  Activity: inactive
[18]
  inhibition: inactive
[19]
  efflux ratio at 2 h, 3 µM: 1.2
[20]
  viability at 0.05 µM: 92.3%
[21]
  Activity: 87.12%
[22]
  Activity: inactive
[23]
  Activity: 85.51%
[24]
  inhibition: inactive
[25]
  half-life: 3.12 h
[26]
  inhibition: Active
[27]
  IC50: > 10000 nM
[28]
  Activity: Active
[29]
  Activity: inactive
[30]
  Activity: Active
[31]
  IC50: 832 nM
[32]
  viability at 0.1 µM: 90.2%
[33]
  viability at 0.2 µM: 90.7%
[34]
  inhibition: Active
